Reference: US20250042880A1 (UNIVERSITY OF KENTUCKY RESEARCH FOUNDATION, priority 2021, published 2025)

What was measured:
HCT116 cells = test: Cell proliferation inhibition assay, HCT116; assay type: cell-based; conditions: for inhibition at 3 µM / inhibition at 10 µM / inhibition at 1 µM: Homo sapiens; for inhibition at 3 µM: HCT-116, 3 μM; for inhibition at 10 µM: HCT-116, 10 μM; for inhibition at 1 µM: HCT-116, 1 μM
Method: (§1) Cell proliferation inhibition assay-Cell proliferation inhibition assay was performed as previously reported (48). All compounds to be tested were dissolved at 10 mM in DMSO. The cells were seeded into 12-well plates at a density of 40,000 cells per well in 1 mL of culture medium and were cultured overnight at 37° C. Either 1 μL of the compounds or the vehicle control (DMSO) was added to the cells. After 5 days, the medium was removed, and 200 μL of 0.25% trypsin was added. The cells were resuspended in 800 μL phosphate-buffered saline (PBS) and counted with Vi-CELL XR 2.03 (Beckman Coulter, Inc. USA). The ratio R of the number of viable cells in the compound-treated group to the number of viable cells in the DMSO-treated group was called relative growth rate, and the growth inhibition was calculated as (1−R)*100.
(§2) Cell proliferation inhibition assay was conducted according to a previous report (48). The cells were split into 12-well plates at a density of 40,000 cells per well in 1 mL of culture medium and were cultured overnight at 37° C. Either 1 μL of the compounds dissolved at 10 mmol/L in DMSO or the vehicle control (DMSO) was added to the cells. After 5 days, removed the medium, and 200 μL of 0.25% trypsin was added. The cells were resuspended in phosphate-buffered saline (PBS) and counted with Vi-CELL XR 2.03 (Beckman Coulter, Inc. USA). The ratio R of the number of viable cells in the compound treatment group to the number of viable cells in the DMSO treatment group was defined as the relative growth rate, and the growth inhibition rate was calculated as (1−R)*100.

OCV-8 Cell = test: OCV-8 cell inhibition; assay type: cell-based; conditions: read-out: OCV-8 Cell Inhibiton; for inhibition at 0.3 µM: 300 nM
LS174T cells = test: Cell proliferation inhibition assay, LS174T; assay type: cell-based; conditions: for combinational effect with BAY-876 on proliferation of LS174T cells: in combination with BAY-876
Method: as §1, §2

LS174T xenografts = LS174T xenografts in SCID mice; assay type: in vivo, mouse; conditions: BAY-876 3 mg/kg/day, DBI-1 40 mg/kg/day
Method: In vivo evaluation of anti-cancer activity in LS174T xenografts—The mouse studies were conducted with the approval of the University of Kentucky Institutional Animal Care and Use Committee (2020-3531). All methods were carried out in compliance with the relevant guidelines and regulations according to protocols. The LS174T cells in exponential growth phase were trypsinized and resuspended in 50% Matrigel (Corning, Glendale, Arizona). Cells (1.2×10^6) were subcutaneously injected on the lower flanks of severe combined immunodeficient mice. The tumor volumes were calculated based on the formula Length×width^2/2. When tumors reached an average volume of 100 mm^3, the mice were divided into control and treatment groups (3 male and 3 female mice/group, two tumors on each mouse). After tumors were established, BAY-876 was given to the mice by gavage feeding to the BAY-876 group at the dose of 3 mg/kg/day. DBI-1 was daily intraperitoneally (i.p.) administered to the DBI-1 group at dose of 40 mg/kg mouse body weight. Mice in the combination treatment group were administered both oral BAY-876 at the dose of 3 mg/kg/day and i.p. DBI-1 at dose of 40 mg/kg mouse body weight. Tumors and mouse weights were measured every three days and the experiment was stopped at day 12. Tumors were isolated and fixed in 10% neutral buffered formalin. Tumor sections were analyzed with H&E and Ki-67 staining at Markey Cancer Center's Biospecimen Procurement and Translational Pathology Shared Resource Facility (BPTP SRF).

Pt2377 cells = test: Cell proliferation inhibition assay, Pt2377; assay type: cell-based; conditions: 120 h; 5 days, viable cells counted
Method: as §1

[1] = cited from earlier work

In the case of `O=c1c(-c2ccc(Cl)cc2)coc2cc(OCCN3CCNCC3)ccc12` [WZY-1-43], the inhibition at 3 µM (HCT116 cells) is reported as 92%, the inhibition at 10 µM (HCT116 cells) is reported as 93% and the inhibition at 0.3 µM (OCV-8 Cell) is reported as 31%. The inhibition at 1 µM (OCV-8 Cell) was 97%.

With `COc1ccc(-c2coc3cc(OCCN4CCN(CCO)CC4)ccc3c2=O)cc1` [WZY-1-61] the inhibition at 3 µM (HCT116 cells) was 0% and the inhibition at 10 µM (HCT116 cells) was 52%.

For `C=C(C)[C@H]1Cc2c(ccc3c2O[C@@H]2COc4cc(OC)c(OC)cc4[C@@H]2C3=O)O1` [Rotenone], the “combinational effect with BAY-876 on proliferation of LS174T cells” value (LS174T cells) was “synergistical effects with BAY-876”.

With `CN(C)CCN(C)CCOc1ccc2c(=O)c(-c3ccc(Br)cc3)coc2c1` [WZY-1-193] the inhibition at 1 µM (HCT116 cells) was 26%, the inhibition at 0.3 µM (OCV-8 Cell) was 57% and the inhibition at 1 µM (OCV-8 Cell) was 87%.

With `O=c1c(-c2ccccc2Cl)coc2cc(OCCN3CCN(CCO)CC3)ccc12` [WZY-1-129] the inhibition at 3 µM (HCT116 cells) was 13%.

Work on `O=c1c(-c2ccc(Cl)cc2)coc2cc(OCCN3CCOCC3)ccc12` [WZY-1-149] yielded an inhibition at 3 µM (HCT116 cells) of 51.4%.

Molecule `COc1ccc(-c2coc3cc(OCCN4CCNCC4)ccc3c2=O)cc1` [WZY-1-59] has an inhibition at 3 µM (HCT116 cells) of 0% and an inhibition at 10 µM (HCT116 cells) of 92%.

`O=c1c(-c2ccc(Br)cc2)coc2cc(OCCCCCCCCN3CCOCC3)ccc12` [WZY-1-101] gave an inhibition at 3 µM (HCT116 cells) of 50.6%.

For `O=c1c(-c2ccc(F)cc2)coc2cc(OCCN3CCNCC3)ccc12` [WZY-1-31], the inhibition at 3 µM (HCT116 cells) was 0% and the inhibition at 10 µM (HCT116 cells) was 89%.

In the case of `O=c1c(-c2ccc(F)c(F)c2)coc2cc(OCCN3CCN(CCO)CC3)ccc12` [XDQ-1-13], the inhibition at 3 µM (HCT116 cells) is reported as 10% and the inhibition at 10 µM (HCT116 cells) is reported as 61%.

In the case of `O=c1c(-c2ccc(Br)cc2)coc2cc(OCCN3CCN(CCO)CC3)ccc12` [WZY-1-49], the inhibition at 3 µM (HCT116 cells) is reported as 80% and the inhibition at 10 µM (HCT116 cells) is reported as 94%.

`O=c1c(-c2ccc(Br)cc2)coc2cc(OCCN3CCNCC3)ccc12` [WZY-1-45] gave an inhibition at 3 µM (HCT116 cells) of 94%, an inhibition at 10 µM (HCT116 cells) of 93% and an inhibition at 0.3 µM (OCV-8 Cell) of 43%. It also gave an inhibition at 1 µM (OCV-8 Cell) of 97%.

Molecule `O=c1c(-c2ccc(Cl)cc2Cl)coc2cc(OCCN3CCNCC3)ccc12` [WZY-1-123] has an inhibition at 3 µM (HCT116 cells) of 67.1%.

For `CN(C)C(=N)N=C(N)N` [Metformin], the “combinational effect with BAY-876 on proliferation of LS174T cells” value (LS174T cells) was “synergistical effects with BAY-876”.

Work on `O=c1c(-c2ccc(Br)cc2)coc2cc(OCCCCn3cccn3)ccc12` [WZY-1-141] yielded an inhibition at 3 µM (HCT116 cells) of 63.9%.

With `O=c1c(-c2ccccc2F)coc2cc(OCCN3CCN(CCO)CC3)ccc12` [WZY-1-67] the inhibition at 3 µM (HCT116 cells) was 0% and the inhibition at 10 µM (HCT116 cells) was 0%.

In the case of `O=c1c(-c2ccc(Cl)c(Cl)c2)coc2cc(OCCN3CCNCC3)ccc12` [XDQ-1-25], the inhibition at 3 µM (HCT116 cells) is reported as 93%, the inhibition at 10 µM (HCT116 cells) is reported as 92.5% and the inhibition at 0.3 µM (OCV-8 Cell) is reported as 72%. The inhibition at 1 µM (OCV-8 Cell) was 99%.

For `O=c1c(-c2ccc(Cl)c(Cl)c2)coc2cc(OCCN3CCN(CCO)CC3)ccc12` [XDQ-1-19], the inhibition at 3 µM (HCT116 cells) was 95%, the inhibition at 10 µM (HCT116 cells) was 94% and the inhibition at 0.3 µM (OCV-8 Cell) was 60%. For the same molecule, the inhibition at 1 µM (OCV-8 Cell) was 99%.

`O=c1c(-c2ccc(Br)cc2)coc2cc(OCCCCCCCCN3CCN(CCO)CC3)ccc12` [WZY-1-97] showed an inhibition at 3 µM (HCT116 cells) of 99.7%, an inhibition at 0.3 µM (OCV-8 Cell) of 39% and an inhibition at 1 µM (OCV-8 Cell) of 96%.

In the case of `O=c1c(-c2ccc(Br)cc2)coc2cc(OCCCCCCCCn3ccnc3)ccc12` [WZY-1-143], the inhibition at 3 µM (HCT116 cells) is reported as 61.2%.

With `O=c1c(-c2ccc(Br)cc2)coc2cc(OCCN3CCOCC3)ccc12` [WZY-1-77] the inhibition at 3 µM (HCT116 cells) was 61.4%.

In the case of `CN(C)CCN(C)CCCCOc1ccc2c(=O)c(-c3ccc(Br)cc3)coc2c1` [DBI-1, 3-(4-Bromophenyl)-7-(4-((2-(dimethylamino)ethyl)(methyl)amino)butoxy)-4H-chromen-4-one], the IC50 (LS174T cells; Homo sapiens, LS174T, 120 h, 5 days, viable cells counted) is reported as 1.2 µM, the inhibition at 1 µM (HCT116 cells) is reported as 45% and the “toxicity based on mice body weight growth rate” value (LS174T xenografts) is reported as “No significant toxicity”. The inhibition at 0.3 µM (OCV-8 Cell) was 57%, the inhibition at 1 µM (OCV-8 Cell) was 96% and the IC50 (Pt2377 cells) was 1.4 µM.

`O=c1c(-c2ccc(F)c(F)c2)coc2cc(OCCN3CCNCC3)ccc12` [XDQ-1-9] showed an inhibition at 3 µM (HCT116 cells) of 34% and an inhibition at 10 µM (HCT116 cells) of 94%.

For `O=c1c(-c2ccc(Cl)cc2Cl)coc2cc(OCCN3CCN(CCO)CC3)ccc12` [WZY-1-125], the inhibition at 3 µM (HCT116 cells) was 43.1%.

For `Cc1nc(-c2nc(-c3ccc(OC(F)(F)F)cc3)no2)nn1Cc1cccc(N2CCC(S(C)(=O)=O)CC2)c1` [IACS-010759], the “tolerability in preclinical models” value ([1]; 25 mg/kg/day) is listed as “not tolerated” and the “antitumor effect in preclinical models” value ([1]; 5-10 mg/kg/day) is listed as “tumor regression”.

Work on `O=c1c(-c2ccc(Br)cc2)coc2cc(OCCCCN3CCOCC3)ccc12` [WZY-1-113] yielded an inhibition at 3 µM (HCT116 cells) of 62.7%.

`O=c1c(-c2ccc(Cl)cc2)coc2cc(OCCN3CCN(CCO)CC3)ccc12` [WZY-1-47] gave an inhibition at 3 µM (HCT116 cells) of 50% and an inhibition at 10 µM (HCT116 cells) of 94%.

With `O=c1c(-c2ccc(Br)cc2)coc2cc(OCCCCN3CCOCC3)ccc12` [WZY-1-155] the “HCT116 Cells Proliferation Inhibition %” value (HCT116 cells; 3 μM) was 65.3%.

With `O=c1c(-c2ccc(Br)cc2)coc2cc(OCCn3ccnc3)ccc12` [WZY-1-131] the inhibition at 3 µM (HCT116 cells) was 22%.

Molecule `O=c1c(-c2ccc(F)cc2)coc2cc(OCCN3CCN(CCO)CC3)ccc12` [WZY-1-33] has an inhibition at 3 µM (HCT116 cells) of 0% and an inhibition at 10 µM (HCT116 cells) of 35%.

Molecule `O=c1c(-c2ccc(Br)cc2)coc2cc(OCCCCN3CCN(CCO)CC3)ccc12` [WZY-1-95] has an inhibition at 3 µM (HCT116 cells) of 99%, an inhibition at 0.3 µM (OCV-8 Cell) of 30% and an inhibition at 1 µM (OCV-8 Cell) of 93%.

For `O=c1c(-c2ccc(Br)cc2)coc2cc(OCCCCn3ccnc3)ccc12` [WZY-1-139], the inhibition at 3 µM (HCT116 cells) was 58.7%.

For `O=c1c(-c2ccc(Br)cc2)coc2cc(OCCCCN3CCNCC3)ccc12` [WZY-1-91], the inhibition at 3 µM (HCT116 cells) was 99.9%, the inhibition at 0.3 µM (OCV-8 Cell) was 34% and the inhibition at 1 µM (OCV-8 Cell) was 94%.

`O=c1c(-c2ccc(Br)cc2)coc2cc(OCCCCCCCCN3CCSCC3)ccc12` [WZY-1-103] showed an inhibition at 3 µM (HCT116 cells) of 42.6%.
